The subject of the assay is PYK-2. Nature of the assay: Tyrosine phosphorylation of PYK-2 in NIH3T3 cells overexpressing PYK-2. Particulars: NIH3T3 cells overexpressing PYK-2 / PYK-2-HA; TPA 6 μM, 15 min, 37° C. In kind it is cell-based. The text has this: The PYK-2 cDNA cloned in pLSV was cotransfected with pSV2neo into PC12 cells and NIH3T3 in order to establish stable cell lines. G418 resistant colonies were screened by immunoprecipitating and immunoblotting.
NIH3T3 cell lines were established that overexpress the PYK-2 and the PYK-2-HA protein. […] The level of phosphorylation is not so high.

Molecules are shown by their SMILES.

Experimental findings from patent publication US20030119067A1, “PYK2 related products and methods” (Sugen, Inc., priority 1996, published 2003) are described below.

Regarding `CCCCCCCCCCCCCC(=O)O[C@@H]1[C@@H](C)[C@@]2(O)[C@@H](C=C(CO)C[C@]3(O)C(=O)C(C)=C[C@@H]23)[C@@H]2C(C)(C)[C@]12OC(C)=O` [PMA, phorbol 12-myristate 13-acetate], the “tyrosine phosphorylation of PYK-2” value is “stronger effect”.
